From patent publication US20180148429A1 (SELVITA S.A., priority 2015, published 2018)

molecular target: T1, Human recombinant His-tagged PFKFB3 (Homo sapiens, UniProt Q16875); experiment: PFKFB3 IC50 determination assay (in vitro kinase assay, modified ADP-Glo system); assay type: biochemical; details: not given
T1 construct: His; made in house
Description: PFKFB3 IC50 Determination Assay
In vitro kinase assay used to determine IC50 values for tested inhibitors is based on a modified ADP-Glo™ system (Promega) and consists of two parts:
1. Kinase reaction—performed in optimized conditions. At this step PFKFB3 phosphorylates its substrate fructose-6-phosphate using ATP as a source of phosphate to produce fructose-2,6-bisphosphate and ADP. Reaction is performed at Km values for ATP and substrate using optimized buffer composition and time of the reaction. Human recombinant His-tagged PFKFB3 (PFKFB3 BATCH II SEC) with confirmed activity is produced and purified in-house.
2. Detection of ADP as a product of the reaction using ADP-Glo™ system. This part is conducted by using the commercially available kit ADP-Glo™ Kinase Assay (Promega, cat. No# V9103) according to manufacturer's instruction, modified by 5× dilutions of assay reagents (both ADP-Glo™ Reagent and Kinase Detection Solution).
(§1) Test compounds are dissolved in DMSO and then transferred to the V-bottom 96-well plate.
15 μL per well of Mix 1 is transferred to assay wells of 96-well white plate. […] Total reaction volume is 30 μL per well. Samples are tested in duplicates. Final concentration of DMSO in the reaction is 6.7%. Conditions needed for performing PFKFB3 (PFKFB3 BATCH II SEC) in vitro kinase assay are given below:
This protocol is based on Technical Bulletin, ADP-Glo™ Kinase Assay (Promega) and is adapted to 96-well plate containing 30 μL reaction mixture:
The plate is incubated for 90 minutes on a shaker at rt. […] Plate is incubated for 40 minutes on a shaker at rt, protected from light. Luminescence is measured in the plate reader Synergy 2 (BioTek).
Luminescent readouts for compounds tested in 10 concentrations (routinely from 100 μM to […], […] serial dilutions) in duplicates, as well as for positive control, are first normalized to no-substrate negative control by its subtraction. In the next step, % of normalized positive control is calculated for each data point and plotted against test compound concentration:
(§2) % of control—percent of positive control normalized to no-substrate negative control Lumcpd—luminescence of test compound Lumneg—luminescence of no-substrate negative control Lumpos—luminescence of positive control
IC50 parameter is determined by the GraphPad Prism 5.0 software
[log(inhibitor) vs. response−Variable slope (four parameters)].

T1 sequence (Q16875 whole entry): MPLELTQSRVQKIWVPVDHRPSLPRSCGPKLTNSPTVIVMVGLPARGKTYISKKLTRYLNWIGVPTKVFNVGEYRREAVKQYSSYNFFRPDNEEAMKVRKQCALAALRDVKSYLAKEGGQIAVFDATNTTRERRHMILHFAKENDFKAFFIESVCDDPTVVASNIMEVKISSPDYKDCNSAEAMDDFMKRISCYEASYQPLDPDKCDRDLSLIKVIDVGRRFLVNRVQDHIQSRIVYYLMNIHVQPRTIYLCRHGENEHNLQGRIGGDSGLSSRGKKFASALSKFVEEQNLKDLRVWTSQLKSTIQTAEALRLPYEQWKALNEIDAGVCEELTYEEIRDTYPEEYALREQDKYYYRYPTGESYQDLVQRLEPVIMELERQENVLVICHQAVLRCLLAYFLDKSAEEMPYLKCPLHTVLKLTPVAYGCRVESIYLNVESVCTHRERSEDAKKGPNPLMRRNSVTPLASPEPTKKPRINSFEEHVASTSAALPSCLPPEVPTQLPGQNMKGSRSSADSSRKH

COc1ccc(C(Nc2cc(-c3ccc4ccn(C)c4c3)c3nccnc3c2)c2cnnn2C)cn1 (stereo not shown) [Example 299, N-[(6-methoxypyridin-3-yl)(1-methyl-1H-1,2,3-triazol-5-yl)methyl]-8-(1-methyl-1H-indol-6-yl)quinoxalin-6-amine] and COc1ccc([C@@H](Nc2cc(-c3ccc4ccn(C)c4c3)c3nccnc3c2)c2cccnc2)cn1 [Example 271, N-[(S)-(6-methoxypyridin-3-yl)(pyridin-3-yl)methyl]-8-(1-methyl-1H-indol-6-yl)quinoxalin-6-amine] fall in the same range of IC50: 1 to 1000 nM for the first, 1 to 1000 nM for the second.

same assay, conditions: ADP-Glo; ATP 20 μM (Km), fructose-6-phosphate 2 μM (Km), 25 nM PFKFB3, 2 h, rt; read-out: PFKFB3 IC50

First: CN1CCC(Nc2cc(-c3ccc4ccn(C)c4c3)c3nccnc3c2)CC1=O (stereo not shown) [Example 132]
Second: CC(=O)N1CC[C@@H](Nc2cc(-c3ccc4ccn(C)c4c3)c3nccnc3c2)C1 [Example 154]
The IC50 of the first is lower: 1 to 1000 nM for the first, 1000 to 10000 nM for the second. The first is the more potent here.

First: CNC(=O)CN1CCC(C(Nc2cc(-c3ccc4ccn(C)c4c3)c3nccnc3c2)c2cccnc2)CC1 (stereo not shown) [Example 275, N-methyl-2-[4-({[8-(1-methyl-1H-indol-6-yl)quinoxalin-6-yl]amino}(pyridin-3-yl)methyl)piperidin-1-yl]acetamide]
Second: Cn1ccc2ccc(-c3cc(NC(c4cccnc4)C4CCN(CC(=O)O)CC4)cc4nccnc34)cc21 (stereo not shown) [compound 252, 2-[4-({[8-(1-methyl-1H-indol-6-yl)quinoxalin-6-yl]amino}(pyridin-3-yl)methyl)piperidin-1-yl]acetic acid]
The IC50 of the first is lower: 1 to 1000 nM for the first, 1000 to 10000 nM for the second. The first is the more potent here.

First: CC(=O)N1CC(Nc2cc(-c3ccc4ccn(C)c4c3)c3nccnc3c2)C1 [Example 155]
Second: CC(=O)N1CCC[C@@H](Nc2cc(-c3ccc4ccn(C)c4c3)c3nccnc3c2)C1 [Example 157]
The IC50 of the first is higher: 1000 to 10000 nM for the first, 1 to 1000 nM for the second. The second is the more potent here.

CCC(=O)N1CCC(C(Nc2cc(-c3ccc4ccn(C)c4c3)c3nccnc3c2)c2cccnc2)CC1 (stereo not shown) [Example 238] and CC(C)C(=O)N1CCC(C(Nc2cc(-c3ccc4ccn(C)c4c3)c3nccnc3c2)c2cccnc2)CC1 (stereo not shown) [Example 237] fall in the same range of IC50: 1 to 1000 nM for the first, 1 to 1000 nM for the second.

CC(=O)N[C@H]1CC[C@H]([C@H](Nc2cc(-c3ccc4ccn(C)c4c3)c3nccnc3c2)c2cccnc2)CC1 [Example 328, N-[(1S,4r)-4-[(S)-{[8-(1-methyl-1H-indol-6-yl)quinoxalin-6-yl]amino}(pyridin-3-yl)methyl]cyclohexyl]acetamide] and Cn1ccc2ccc(-c3cc(NC(c4cccnc4)C4CCN(S(C)(=O)=O)CC4)cc4nccnc34)cc21 (stereo not shown) [Example 318, N-[(1-methanesulfonylpiperidin-4-yl)(pyridin-3-yl)methyl]-8-(1-methyl-1H-indol-6-yl)quinoxalin-6-amine] fall in the same range of IC50: 1 to 1000 nM for the first, 1 to 1000 nM for the second.

Compared with COc1ccc(C(Nc2cc(-c3ccc4occ(C)c4c3)c3nccnc3c2)c2cnnn2C)cn1 (stereo not shown) [Example 316, N-[(6-methoxypyridin-3-yl)(1-methyl-1H-1,2,3-triazol-5-yl)methyl]-8-(3-methyl-1-benzofuran-5-yl)quinoxalin-6-amine], COc1ccc(C(Nc2cc(-c3ccc4ccn(C)c4c3)c3nccnc3c2)c2ccnn2C)cn1 (stereo not shown) [Example 317, N-[(6-methoxypyridin-3-yl)(1-methyl-1H-pyrazol-5-yl)methyl]-8-(1-methyl-1H-indol-6-yl)quinoxalin-6-amine] is higher in IC50: 1 to 1000 nM for the first, 1000 to 10000 nM for the second. The first is the more potent here.

Cc1cc(CNc2cc(-c3ccc4ccn(C)c4c3)c3nccnc3c2)sn1 [Example 280, N-[(3-methyl-1,2-thiazol-5-yl)methyl]-8-(1-methyl-1H-indol-6-yl)quinoxalin-6-amine] and Cc1ncc(CNc2cc(-c3ccc4ccn(C)c4c3)c3nccnc3c2)o1 [Example 312, N-[(2-methyl-1,3-oxazol-5-yl)methyl]-8-(1-methyl-1H-indol-6-yl)quinoxalin-6-amine] fall in the same range of IC50: 1000 to 10000 nM for the first, 1000 to 10000 nM for the second.

Cn1ccc2ccc(-c3cc(N[C@H]4CCN(C(=O)c5ccccn5)C4)cc4nccnc34)cc21 [Example 160, 8-(1-methyl-1H-indol-6-yl)-N-[(3S)-1-(pyridine-2-carbonyl)pyrrolidin-3-yl]quinoxalin-6-amine] and Cn1ccc2ccc(-c3cc(N[C@H]4CCN(c5nc6ccccc6[nH]5)C4)cc4nccnc34)cc21 [Example 161, N-[(3S)-1-(1H-1,3-benzodiazol-2-yl)pyrrolidin-3-yl]-8-(1-methyl-1H-indol-6-yl)quinoxalin-6-amine] fall in the same range of IC50: 1000 to 10000 nM for the first, 1000 to 10000 nM for the second.

First: COc1ccc(C(Nc2cc(-c3ccc4ccn(C)c4c3)c3nccnc3c2)c2ccc(OC)nc2)cn1 [Example 309, N-[bis(6-methoxypyridin-3-yl)methyl]-8-(1-methyl-1H-indol-6-yl)quinoxalin-6-amine]
Second: COc1cc(C(Nc2cc(-c3ccc4ccn(C)c4c3)c3nccnc3c2)c2cccnc2)ccn1 (stereo not shown) [Example 240, N-[(2-methoxypyridin-4-yl)(pyridin-3-yl)methyl]-8-(1-methyl-1H-indol-6-yl)quinoxalin-6-amine]
The IC50 of the first is higher: 1000 to 10000 nM for the first, 1 to 1000 nM for the second.

First: CC(=O)N1CCCC(Nc2cc(-c3ccc4ccn(C)c4c3)c3nccnc3c2)CC1 (stereo not shown) [Example 168]
Second: CCn1ccc2ccc(-c3cc(NC4CCN(C(C)=O)CC4)cc4nccnc34)cc21 [Example 147]
The IC50 of the first is lower: 1 to 1000 nM for the first, 1000 to 10000 nM for the second. The first is the more potent here.

Compared with COc1ccc(C(c2cccnc2)N(C)c2cc(-c3ccc4ccn(C)c4c3)c3nccnc3c2)cn1 (stereo not shown) [Example 297, N-[(6-methoxypyridin-3-yl)(pyridin-3-yl)methyl]-N-methyl-8-(1-methyl-1H-indol-6-yl)quinoxalin-6-amine], Cn1ccc2ccc(-c3cc(N(Cc4cccnc4)c4cc(S(C)(=O)=O)ccn4)cc4nccnc34)cc21 [compound 219, N-(4-methanesulfonylpyridin-2-yl)-8-(1-methyl-1H-indol-6-yl)-N-[(pyridin-3-yl)methyl]quinoxalin-6-amine] is lower in IC50: 10000 to 100000 nM for the first, 1 to 1000 nM for the second.

CC(=O)N1CCC(C(Nc2cc(-c3ccc4occ(C)c4c3)c3nccnc3c2)c2cccnc2)CC1 (stereo not shown) [Example 233] and CC(=O)N1CCC(C(Nc2cc(-c3ccc4scc(C)c4c3)c3nccnc3c2)c2cccnc2)CC1 (stereo not shown) [Example 270, 1-[4-({[8-(3-methyl-1-benzothiophen-5-yl)quinoxalin-6-yl]amino}(pyridin-3-yl)methyl)piperidin-1-yl]ethan-1-one] fall in the same range of IC50: 1 to 1000 nM for the first, 1 to 1000 nM for the second.

Compound CCN(CC)C(=O)CN1CCC(C(Nc2cc(-c3ccc4ccn(C)c4c3)c3nccnc3c2)c2cccnc2)CC1 (stereo not shown) [Example 277, N,N-diethyl-2-[4-({[8-(1-methyl-1H-indol-6-yl)quinoxalin-6-yl]amino}(pyridin-3-yl)methyl)piperidin-1-yl]acetamide] has an IC50 of 1000 to 10000 nM.

molecular target: T2, BRK (PTK6 protein tyrosine kinase 6) (Homo sapiens, UniProt Q13882); experiment: BRK (PTK6 protein tyrosine kinase 6) IC50 determination assay (in vitro kinase assay, ADP-Glo Max); assay type: biochemical; details: ATP 1600 uM (Km), Poly(Glu, Tyr) 160 uM, 75 nM PTK6, 45 min, RT
T2 construct: purchased Carna Bioscience 08-165
T2 sequence (Q13882 whole entry): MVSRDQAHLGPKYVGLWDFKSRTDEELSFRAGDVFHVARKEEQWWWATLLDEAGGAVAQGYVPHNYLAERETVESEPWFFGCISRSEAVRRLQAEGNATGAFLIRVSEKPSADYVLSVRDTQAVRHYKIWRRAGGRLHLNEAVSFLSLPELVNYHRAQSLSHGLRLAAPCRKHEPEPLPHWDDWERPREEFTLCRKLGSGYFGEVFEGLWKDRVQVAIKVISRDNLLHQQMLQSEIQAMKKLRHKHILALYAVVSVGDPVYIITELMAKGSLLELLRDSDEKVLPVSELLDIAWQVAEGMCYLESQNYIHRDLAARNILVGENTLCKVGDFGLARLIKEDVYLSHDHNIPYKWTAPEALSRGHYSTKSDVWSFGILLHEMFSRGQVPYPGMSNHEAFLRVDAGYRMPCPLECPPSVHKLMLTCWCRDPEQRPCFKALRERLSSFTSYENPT
Description: BRK (PTK6 Protein Tyrosine Kinase 6) IC50 Determination Assay
In vitro kinase assay used to determine IC50 values for tested inhibitors is based on a modified ADP-Glo™ Max Assay system (Promega) and consists of two parts:
1. Kinase reaction—performed in optimized conditions. At this step BRK phosphorylates its substrate Poly(Glu, Tyr) sodium salt [Glu:Tyr (4:1)] using ATP as a source of phosphate to produce phosphorylated substrate and ADP. Reaction is performed at Km values for ATP and substrate using optimized buffer composition and time of the reaction. BRK (PTK6 protein tyrosine kinase 6) used in the experiments is commercially available (Carna Bioscience, cat. No. 08-165).
2. Detection of ADP as a product of the reaction using ADP-Glo™ system. This part is conducted by using the commercially available kit ADP-Glo™ Max Assay (Promega, cat. No. V7001) according to manufacturer's instruction. Reproducibility and reliability of this modification is confirmed in an optimization process.
as §1
Two mixes are prepared on ice: Mix 1—containing appropriate kinase amount in 2× reaction buffer and Mix 2—containing concentrated substrate (Poly(Glu, Tyr) sodium salt) and ATP in MilliQ water. 15 μL per well of Mix 1 is transferred to assay wells of 96-well white plate. Next, 2 μl of 15× concentrated test compound in DMSO is added to Mix 1 for 20 min pre-incubation, followed by addition of Mix 2 (13 μl/well). Total reaction volume is 30 μL per well. Samples are tested in duplicates. Final concentration of DMSO in the reaction is 6.7%. Conditions needed for performing BRK in vitro kinase assay are given below:
This protocol is based on Technical Bulletin, ADP-Glo™ Kinase Assay (Promega) and is adapted to 96-well plate containing 30 μL reaction mixture. 30 μL of ADP-Glo™ Reagent is added to each well of 96-well plate containing 30 μL of reaction mixture. The plate is incubated for 90 minutes on a shaker at RT. 60 μL of ADP-Glo™ Max Detection Solution is added to each well of 96-well plate containing 60 μL of the solution (ratio of kinase reaction volume to ADP-Glo™ Reagent volume to Kinase Detection Solution volume is maintained at […]). Plate is incubated for 40 minutes on a shaker at RT, protected from light. Luminescence is measured in the plate reader Synergy 2 (BioTek). Luminescent readouts for compounds tested in 8 concentrations (routinely from 66.7 μM in 5-fold serial dilution step) in duplicates, as well as for high control (complete reaction mix w/DMSO vehicle control), are first normalized to no-substrate low control by its subtraction. In the next step, % of normalized positive control is calculated for each data point and plotted against test compound concentration:
as §2
IC50 parameter is determined by the GraphPad Prism 6.0 software using 4-parameter model.

With CN1CCC(Nc2cc(-c3ccc4ccn(C)c4c3)c3nccnc3c2)CC1=O (stereo not shown) [Example 132] the IC50 was 1 to 1000 nM.
